# Measured values reported in patent publication US12410160B2 (Gilead Sciences, Inc., priority 2021, dated 2025).
# Read-outs that look alike come from different tables or passages of the source.
# Experiments:
# [1] = biological target: human KHK-C (Homo sapiens (Human), UniProt P50053); assay: KHK Biochemical Assay (IC50), ADP-Glo, KHK-C; conditions: average of at least two separate assays
# How it was run: (§1)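 His-tagged enzyme expressed in BL21 (DE3), Ni-NTA purified. Compounds, serially diluted 1:3 in DMSO, pre-incubated 30 min with enzyme in 50 mM Hepes pH 7.4, 140 mM KCl, 5 mM MgCl2, 0.01% Triton-X, then ATP and fructose added; 4 h at room temperature. ADP formation read by ADP-Glo luminescence.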
# [2] = biological target: KHK-C expressed in NRK-52E cells (Homo sapiens (Human), UniProt P50053); assay: KHK-C Cell-based Assay (EC50), NRK CTG, fructose-mediated ATP-depletion
# [3] = biological target: human KHK-A (Homo sapiens (Human), UniProt P50053); assay: KHK Biochemical Assay (IC50), ADP-Glo, KHK-A; conditions: average of at least two separate assays
# How it was run: as §1
# Sequence of human KHK-A (P50053 other isoform, or with tags, fused parts or gaps): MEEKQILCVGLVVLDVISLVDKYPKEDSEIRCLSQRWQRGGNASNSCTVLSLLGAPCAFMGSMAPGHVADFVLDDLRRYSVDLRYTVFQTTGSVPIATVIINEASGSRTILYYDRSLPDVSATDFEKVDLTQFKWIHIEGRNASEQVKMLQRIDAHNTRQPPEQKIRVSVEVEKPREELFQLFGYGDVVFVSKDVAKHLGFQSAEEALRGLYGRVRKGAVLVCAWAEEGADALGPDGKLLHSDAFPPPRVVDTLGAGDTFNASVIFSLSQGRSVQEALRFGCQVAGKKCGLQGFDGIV
# Sequence of KHK-C expressed in NRK-52E cells (P50053 whole entry): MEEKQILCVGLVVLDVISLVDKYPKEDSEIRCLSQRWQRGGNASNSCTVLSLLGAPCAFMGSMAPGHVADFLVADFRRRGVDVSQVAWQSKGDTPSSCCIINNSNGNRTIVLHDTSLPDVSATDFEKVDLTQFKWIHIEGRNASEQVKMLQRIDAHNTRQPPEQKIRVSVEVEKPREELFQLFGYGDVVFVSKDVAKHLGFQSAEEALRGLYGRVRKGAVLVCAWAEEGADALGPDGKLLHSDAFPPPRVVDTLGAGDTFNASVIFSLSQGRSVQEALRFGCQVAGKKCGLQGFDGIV
# Sequence of human KHK-C (P50053 whole entry): as above
Compound,IC50 ([1]; ADP-Glo) [nM],EC50 [2] [nM],IC50 ([3]; ADP-Glo) [nM],IC50 [1] [nM],IC50 [3] [nM],"EC50 ([2]; read-out: NRK CTG EC50, NRK-52E cells, fructose-mediated ATP-depletion, Cell-Titer Glo) [nM]","EC50 ([2]; read-out: NRK CTG EC50, NRK-52E cells, Cell-Titer Glo, 25 mM fructose) [nM]"
"C[C@H]1CCN1c1nc2c(c(-c3ccc4c(c3)S(=O)(=O)CNC4=O)n1)CCC2 [Example 234, 7-[2-[(2S)-2-methylazetidin-1-yl]-6,7-dihydro-5H-cyclopenta[d]pyrimidin-4-yl]-1,1-dioxo-2,3-dihydro-1lambda6,3-benzothiazin-4-one]",18.9,56.4,39.1,–,–,–,–
"C[C@H]1CCN1c1nc2c(c(-c3ccc(CO)cc3)n1)CCC2 [Example 374, [4-[2-[(2S)-2-methylazetidin-1-yl]-6,7-dihydro-5H-cyclopenta[d]pyrimidin-4-yl]phenyl]methanol]",40.4,73.5,47.8,–,–,–,–
C[C@H]1[C@H](O)CN1c1nc2c(c(-c3cccc(NS(=O)(=O)CC(=O)O)c3)n1)CCC2 [Example 82],14.9,> 5000,14.9,–,–,–,–
"COC(=O)[C@H]1C[C@@]12C(=O)Nc1ccc(-c3nc(N4CC[C@@H]4C)nc4c3CCC4)cc12 (racemic) [Example 407, rac-methyl (1R,2S)-5′-(2-((S)-2-methylazetidin-1-yl)-6,7-dihydro-5H-cyclopenta[d]pyrimidin-4-yl)-2′-oxospiro[cyclopropane-1,3′-indoline]-2-carboxylate]",–,506,–,229,235,–,–
C[C@H]1[C@H](F)CN1c1nc2c(c(-c3ccc4c(c3)CCNC4=O)n1)CCC2 [Example 289],17.5,34.5,57.9,–,–,–,–
"C[C@H]1CCN1c1nc2c(c(-c3ccc(C45CC(C(N)=O)(C4)C5)cc3)n1)CCC2 [Example 250, 3-[4-[2-[(2S)-2-methylazetidin-1-yl]-6,7-dihydro-5H-cyclopenta[d]pyrimidin-4-yl]phenyl]bicyclo[1.1.1]pentane-1-carboxamide]",129,852,196,–,–,–,–
"C[C@H]1CCN1c1nc2c(c(-c3cc(F)c(C(N)=O)c(F)c3)n1)CCC2 [Example 315, (S)-2,6-difluoro-4-(2-(2-methylazetidin-1-yl)-6,7-dihydro-5H-cyclopenta[d]pyrimidin-4-yl)benzamide]",34,57.3,31.5,–,–,–,–
"CC(=O)N1C[C@H](C(=O)O)[C@@H](c2cccc(-c3nc(N4CC[C@@H]4C)nc4c3CCC4)c2)C1 (mixture of isomers) [Example 145, (3R,4S)-1-acetyl-4-(3-(2-((S)-2-methylazetidin-1-yl)-6,7-dihydro-5H-cyclopenta[d]pyrimidin-4-yl)phenyl)pyrrolidine-3-carboxylic acid]",125,> 5000,83.7,–,–,–,–
"C[C@H]1CCN1c1nc2c(c(-c3ccnc(OC(F)F)c3)n1)CCC2 [Example 453, 4-[2-(difluoromethoxy)-4-pyridyl]-2-[(2S)-2-methylazetidin-1-yl]-6,7-dihydro-5H-cyclopenta[d]pyrimidine]",–,1040,–,776,1010,–,–
"C[C@H]1CCN1c1nc2c(c(-c3cccc4c3CC3C(C(=O)O)C43)n1)CCC2 (stereo partly drawn) [Example 432, 5-[2-[(2S)-2-methylazetidin-1-yl]-6,7-dihydro-5H-cyclopenta[d]pyrimidin-4-yl]-1,1a,6,6a-tetrahydrocyclopropa[a]indene-1-carboxylic acid]",–,2630,–,360,323,–,–
"C[C@H]1CCN1c1nc2c(c(-c3ccc4c(c3)CC(C(N)=O)C4)n1)CCC2 (stereo partly drawn) [Example 140, 5-(2-((S)-2-methylazetidin-1-yl)-6,7-dihydro-5H-cyclopenta[d]pyrimidin-4-yl)-2,3-dihydro-1H-indene-2-carboxamide]",52.8,163,28.1,–,–,–,–
"C[C@H]1CCN1c1nc(-c2ccccc2)c2c(n1)[C@@H]1C[C@@H]1C2 [Example 333, (5aR,6aR)-2-((S)-2-methylazetidin-1-yl)-4-phenyl-5,5a,6,6a-tetrahydrocyclopropa[4,5]cyclopenta[1,2-d]pyrimidine]",1310,1130,1310,–,–,–,–
"C[C@H]1CCN1c1nc(-c2ccc(C(N)=O)cc2)c2c(n1)C(F)(F)CCC2 [Example 157, (S)-4-(8,8-difluoro-2-(2-methylazetidin-1-yl)-5,6,7,8-tetrahydroquinazolin-4-yl)benzamide]",211,291,125,–,–,–,–
C[C@H]1[C@H](O)CN1c1nc(-c2ccc(C(N)=O)cc2)c2c(n1)C(F)(F)CCC2 [Example 158],314,1120,217,–,–,–,–
"CNC(=O)c1cccc(-c2nc(N3CC[C@@H]3C)nc3c2CCC3)c1 [Example 28, (S)—N-methyl-3-(2-(2-methylazetidin-1-yl)-6,7-dihydro-5H-cyclopenta[d]pyrimidin-4-yl)benzamide]",50.3,137,55.2,–,–,–,–
C[C@H]1[C@H](O)CN1c1nc2c(c(-c3ccc4c(c3)CCNC4=O)n1)CCC2 [Example 288],44.3,108,103,–,–,–,–
"NC1(c2ccc(-c3nc(N4CCC4C(F)F)nc4c3CCC4(F)F)cc2)CS(=O)(=O)C1 (stereo not drawn) [Example 799, 3-amino-3-(4-(2-(2-(difluoromethyl)azetidin-1-yl)-7,7-difluoro-6,7-dihydro-5H-cyclopenta[d]pyrimidin-4-yl)phenyl)thietane 1,1-dioxide]",1.9,21.5,16.2,–,–,–,–
"C[C@H]1CCN1c1nc2c(c(-c3ccc(C4(O)COC4)cc3)n1)CCC2 [Example 127, (S)-3-(4-(2-(2-methylazetidin-1-yl)-6,7-dihydro-5H-cyclopenta[d]pyrimidin-4-yl)phenyl)oxetan-3-ol]",65.5,223,99.6,–,–,–,–
"C[C@H]1CCN1c1nc2c(c(-c3ccc(C#N)c(F)c3)n1)CCC2 [Example 313, (S)-2-fluoro-4-(2-(2-methylazetidin-1-yl)-6,7-dihydro-5H-cyclopenta[d]pyrimidin-4-yl)benzonitrile]",1150,2080,1030,–,–,–,–
"C[C@H]1CCN1c1nc2c(c(-c3ccc4[nH]c(=O)[nH]c4c3)n1)CCC2 [Example 247, 5-[2-[(2S)-2-methylazetidin-1-yl]-6,7-dihydro-5H-cyclopenta[d]pyrimidin-4-yl]-1,3-dihydrobenzimidazol-2-one]",49.6,107,50,–,–,–,–
"C[C@H]1CCN1c1nc(-c2cccc(CNS(C)(=O)=O)c2)c2c(n1)C(F)(F)CC2 [Example 323, (S)—N-(3-(7,7-difluoro-2-(2-methylazetidin-1-yl)-6,7-dihydro-5H-cyclopenta[d]pyrimidin-4-yl)benzyl)methanesulfonamide]",4.2,16.1,4.7,–,–,–,–
"C[C@H]1[C@H](O)CN1c1nc2c(c(-c3cccc(NS(C)(=O)=O)c3)n1)CCC2 [Example 43, N-(3-(2-((2S,3R)-3-hydroxy-2-methylazetidin-1-yl)-6,7-dihydro-5H-cyclopenta[d]pyrimidin-4-yl)phenyl)methanesulfonamide]",48.1,225,66.8,–,–,–,–
"C[C@H]1CCN1c1nc2c(c(-c3ccc4c(c3)C(=O)NC4=O)n1)CCC2 [Example 240, 5-[2-[(2S)-2-methylazetidin-1-yl]-6,7-dihydro-5H-cyclopenta[d]pyrimidin-4-yl]isoindoline-1,3-dione]",173,4980,183,–,–,–,–
"C[C@H]1CCN1c1nc2c(c(-c3ccc(C(O)CF)cc3)n1)CCC2 (stereo partly drawn) [Example 257, 2-fluoro-1-[4-[2-[(2S)-2-methylazetidin-1-yl]-6,7-dihydro-5H-cyclopenta[d]pyrimidin-4-yl]phenyl]ethanol]",128,185,201,–,–,–,–
"ethyl N-[[4-[2-[(2S)-2-methylazetidin-1-yl]-6,7-dihydro-5H-cyclopenta[d]pyrimidin-4-yl]phenyl]methyl]carbamate [Example 359]",89.7,–,72.4,–,–,495,–
"C[C@H]1[C@H](O)CN1c1nc2c(c(-c3ccc(C(N)=O)s3)n1)CCC2 [Example 57, 5-(2-((2S,3R)-3-hydroxy-2-methylazetidin-1-yl)-6,7-dihydro-5H-cyclopenta[d]pyrimidin-4-yl)thiophene-2-carboxamide]",17.8,65.8,12.9,–,–,–,–
"C[C@H]1CCN1c1nc2c(c(-c3cccc(C(=O)NCCC(=O)O)c3)n1)CCC2 [Example 217, 3-[[3-[2-[(2S)-2-methylazetidin-1-yl]-6,7-dihydro-5H-cyclopenta[d]pyrimidin-4-yl]benzoyl]amino]propanoic acid]",90.3,> 5000,130,–,–,–,–
"O=C1N[C@@]2(CO1)COc1cc(-c3nc(N4CC[C@@H]4C(F)(F)F)nc4c3CCC4(F)F)ccc12 [Example 830, (R)-6-(7,7-difluoro-2-((R)-2-(trifluoromethyl)azetidin-1-yl)-6,7-dihydro-5H-cyclopenta[d]pyrimidin-4-yl)-2H-spiro[benzofuran-3,4′-oxazolidin]-2′-one]",0.2,3.2,2,–,–,–,–
"C[C@H]1[C@H](O)CN1c1nc(-c2ccc3c(c2)COC[C@]32CCC(=O)N2)c2c(n1)C(F)(F)CC2 (single isomer, unassigned) [Example 641]",–,–,–,0.9,14.5,–,20.3
